Among the data in ChEMBL document CHEMBL5365401, “Discovery of 5-((1H-indazol-3-yl) methylene)-2-thioxoimidazolidin-4-one derivatives as a new class of AHR agonists with anti-psoriasis activity in a mouse model” (Bioorg Med Chem Lett, 2023) are EC50 and Activity values, retold here.

For data set [1], the target named is T1, Aryl hydrocarbon receptor (Homo sapiens, UniProt P35869).
T1 sequence (P35869 whole entry): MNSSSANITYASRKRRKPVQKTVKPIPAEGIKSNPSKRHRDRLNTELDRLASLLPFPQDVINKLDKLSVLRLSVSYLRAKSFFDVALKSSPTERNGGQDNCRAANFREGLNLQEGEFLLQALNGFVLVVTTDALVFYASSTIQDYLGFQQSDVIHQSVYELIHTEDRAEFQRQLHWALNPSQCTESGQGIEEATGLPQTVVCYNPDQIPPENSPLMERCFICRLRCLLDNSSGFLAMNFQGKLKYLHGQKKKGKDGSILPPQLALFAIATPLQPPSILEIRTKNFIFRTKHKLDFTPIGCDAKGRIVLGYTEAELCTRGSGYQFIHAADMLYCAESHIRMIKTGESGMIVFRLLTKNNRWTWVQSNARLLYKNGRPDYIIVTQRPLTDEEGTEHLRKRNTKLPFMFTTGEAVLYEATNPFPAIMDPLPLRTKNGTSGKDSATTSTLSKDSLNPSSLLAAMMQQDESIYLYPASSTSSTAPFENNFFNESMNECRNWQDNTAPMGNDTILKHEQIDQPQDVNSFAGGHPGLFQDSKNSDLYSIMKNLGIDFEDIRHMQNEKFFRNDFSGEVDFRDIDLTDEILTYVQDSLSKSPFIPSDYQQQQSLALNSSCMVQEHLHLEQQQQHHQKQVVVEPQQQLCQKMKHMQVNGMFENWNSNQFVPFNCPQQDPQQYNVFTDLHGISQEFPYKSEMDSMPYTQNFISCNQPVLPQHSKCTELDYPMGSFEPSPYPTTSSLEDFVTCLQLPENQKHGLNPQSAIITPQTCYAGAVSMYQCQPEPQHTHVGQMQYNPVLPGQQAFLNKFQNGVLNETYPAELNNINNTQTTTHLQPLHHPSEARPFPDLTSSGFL
The experiment in a line: Agonist activity at AHR in human HepG2-Lucia AhR cells stably transfected with DRE by luciferase reporter assay. The class given is cell-based. (In general: In a reporter assay the amount or activity of a reporter protein is the signal.)

Another data set deals with Mus musculus. The experiment in a line: Anti-psoriatic activity in imiquimod-induced BALB/c mouse model assessed as decrease in psoriasis-like skin lesion at 1 % administered topically. The class given is functional, organism-based. To be noted: Zone of skin, route top.
In data set [2] the target is T1, Aryl hydrocarbon receptor. Briefly: Agonist activity at AHR in human HepG2 cells stably transfected with DRE assessed as increase in AHR nuclear translocation at 1 to 10 uM by Western blot analysis. The class given is cell-based. The conditions noted are these: dose 1-10 µM. (In general: Immunoblotting shows a protein as a band on a membrane.)
The target of data set [3] is T1, Aryl hydrocarbon receptor. The experiment in a line: Agonist activity at AHR in human HepG2 cells stably transfected with DRE assessed as increase in CYP1A1 mRNA expression by qPCR assay. The class given is cell-based. To be noted: dose 0.1-10 µM.

pEC50: −log10 of the molar value. Activity calls are given as the source filed them. The rule behind the calls is not given here.

Broadly, the pEC50 is the EC50 on a negative log10 scale, so that one unit is a factor of ten. For the compound `O=C1NC(=O)/C(=C/c2c[nH]c3ccccc23)N1`, the negative logarithm of the EC50 (pEC50) in data set [1] was < 5.00.
Compound `Cc1ccc([N+](=O)[O-])c2c1NC(c1ccc(Br)cc1)=NO2` gave a negative logarithm of the EC50 (pEC50) in data set [1] of 5.47.
On the same count and under the same terms, as for `CC(C)N1C(=O)/C(=C/c2c[nH]c3ccccc23)NC1=S`, the figure is 5.00.
For the compound `O=C1NC(=S)N/C1=C\c1c[nH]c2ccccc12`, the pEC50 in data set [1] was < 5.00.
The same measure, in the same setting: as for `CCN1C(=O)/C(=C/c2n[nH]c3ccccc23)NC1=S`, the figure is 6.66.
Turning to `CN1C(=O)/C(=C/c2cncnc2)NC1=S`, the pEC50 in data set [1] was < 5.00.
Still for that read-out and setting: to `COc1cccc(OC)c1C(=O)OCc1cc(=O)n2cc(Br)ccc2n1` belongs 5.23; to `CN1C(=O)/C(=C/c2csc3ccccc23)NC1=S`, 5.74; to `CN1C(=O)/C(=C/c2n[nH]c3ccccc23)NC1=S`, 7.31.
In the case of `CN1C(=O)C(Cc2c[nH]c3ccccc23)NC1=S` (stereo not given) [NECROSTATIN], the negative-log EC50 (pEC50) in data set [1] is < 5.00.
On the same count and under the same terms, to `CC#CCN1C(=O)/C(=C/c2n[nH]c3ccccc23)NC1=S` belongs 6.28.
With `CN1C(=S)NC(=O)/C1=C/c1n[nH]c2ccccc12`, in data set [1], the negative-log EC50 (pEC50) was 5.60.
Same read-out and setting: to `Cc1cc(-c2nnc3sc(-c4ccccc4Br)nn23)[nH]n1` belongs 5.55; to `Cc1[nH]c2ccccc2c1/C=C1\NC(=S)N(C)C1=O`, < 5.00; to `CN1C(=O)/C(=C/c2c[nH]c3ccccc23)NC1=S`, 6.84.
As to `C#CCN1C(=O)/C(=C/c2n[nH]c3ccccc23)NC1=S`, the outcome in the data set with Mus musculus was Active. Besides, the Activity result in data set [2] and in data set [3] was “Dose-Dependent Effect” in each case. The same compound showed a negative logarithm of the EC50 (pEC50) in data set [1] of 7.82.
With `CCN1C(=O)/C(=C\c2c[nH]c3ccccc23)NC1=S`, the pEC50 in data set [1] was 5.74.
